The nature of data set [1]: Stability of Form I and Form II under various storage conditions. The data set is classed as physicochemical. From the text: In each case, the test material was first placed in Primary Packaging Material (LLDPE bag within a HMHDPE/LDPE/LDPE blend bag, and then heat sealed). The Primary Packaging Material was placed in Secondary Packaging Material (HDPE drum). All other impurities were less than 1% at each time point.

Data set [2] is described as follows: Mean intrinsic dissolution studies. In kind it is physicochemical. The source says: Mean intrinsic dissolution rates for exemplary batches of the two forms are shown in Table cC-2 for 3 batches of Form I (SD and % CV for one batch shown) and for Form II.

Regarding `CC[C@H]1OC(=O)[C@@](C)(F)C(=O)[C@H](C)[C@@H](O[C@@H]2O[C@H](C)C[C@H](N(C)C)[C@H]2O)[C@](C)(OC)C[C@@H](C)C(=O)[C@H](C)[C@H]2N(CCCCn3cc(-c4cccc(N)c4)nn3)C(=O)O[C@]12C` [Form I (Lot 3)], the 3-Ethynylaniline in data set [1] (2-8° C., 3 Month) was 0.01%; in data set [1] (2-8° C., 6 Month), “Not Detected”; in data set [1] (2-8° C., 12 Month), “Not Detected”; in data set [1] (2-8° C., Initial), 0.01%; in data set [1] (25° C./60% RH, 3 Month), 0.01%; in data set [1] (25° C./60% RH, 6 Month) it was “Not Detected”. The 3-Ethynylaniline entry was “Not Detected” in data set [1] (25° C./60% RH, 12 Month); 0.01% in data set [1] (25° C./60% RH, Initial); 0.01% in data set [1] (40° C./75% RH, 3 Month); 0.01% in data set [1] (40° C./75% RH, 12 Month); 0.01% in data set [1] (40° C./75% RH, Initial). Further, the “Assay (on hydrous basis)” value was determined as 98.9% in data set [1] (2-8° C., 3 Month); 98.8% in data set [1] (2-8° C., 6 Month); 98.7% in data set [1] (2-8° C., 12 Month); 99.5% in data set [1] (2-8° C., Initial); 98.7% in data set [1] (25° C./60% RH, 3 Month); 98.6% in data set [1] (25° C./60% RH, 6 Month). Moreover, the “Assay (on hydrous basis)” value is given as 98.5% in data set [1] (25° C./60% RH, 12 Month); 99.5% in data set [1] (25° C./60% RH, Initial); 98.5% in data set [1] (40° C./75% RH, 3 Month); 98.3% in data set [1] (40° C./75% RH, 12 Month); 99.5% in data set [1] (40° C./75% RH, Initial). For the same molecule, the “Chromatographic Purity” value in data set [1] (2-8° C., 3 Month) is 98.1%; in data set [1] (2-8° C., 6 Month) it was 98.4%; in data set [1] (2-8° C., 12 Month), 98.5%; in data set [1] (2-8° C., Initial), 98.3%; in data set [1] (25° C./60% RH, 3 Month), 98.1%; in data set [1] (25° C./60% RH, 6 Month) it was 98.3%. The “Chromatographic Purity” value amounted to 98.4% in data set [1] (25° C./60% RH, 12 Month); 98.3% in data set [1] (25° C./60% RH, Initial); 98.0% in data set [1] (40° C./75% RH, 3 Month); 98.3% in data set [1] (40° C./75% RH, 12 Month); 98.3% in data set [1] (40° C./75% RH, Initial). Also, the Water in data set [1] (2-8° C., 3 Month) worked out at 1.63%; in data set [1] (2-8° C., 6 Month), 1.61%; in data set [1] (2-8° C., 12 Month) it was 1.69%; in data set [1] (2-8° C., Initial), 1.11%; in data set [1] (25° C./60% RH, 3 Month), 1.65%; in data set [1] (25° C./60% RH, 6 Month), 1.71%. Besides, the Water is listed as 1.75% in data set [1] (25° C./60% RH, 12 Month); 1.11% in data set [1] (25° C./60% RH, Initial); 1.68% in data set [1] (40° C./75% RH, 3 Month); 1.84% in data set [1] (40° C./75% RH, 12 Month); 1.11% in data set [1] (40° C./75% RH, Initial).
As for `CC[C@H]1OC(=O)[C@@](C)(F)C(=O)[C@H](C)[C@@H](O[C@@H]2O[C@H](C)C[C@H](N(C)C)[C@H]2O)[C@](C)(OC)C[C@@H](C)C(=O)[C@H](C)[C@H]2N(CCCCn3cc(-c4cccc(N)c4)nn3)C(=O)O[C@]12C` [Form I (Lot 4)], the 3-Ethynylaniline was 0.01% in data set [1] (2-8° C., 3 Month); 0.01% in data set [1] (2-8° C., 6 Month); “Not Detected” in data set [1] (2-8° C., 12 Month); 0.01% in data set [1] (2-8° C., Initial); 0.01% in data set [1] (25° C./60% RH, 3 Month); “Not Detected” in data set [1] (25° C./60% RH, 6 Month). In addition, the 3-Ethynylaniline result in data set [1] (25° C./60% RH, 12 Month) is “Not Detected”; in data set [1] (25° C./60% RH, Initial) it was 0.01%; in data set [1] (40° C./75% RH, 3 Month), 0.01%; in data set [1] (40° C./75% RH, 12 Month), 0.01%; in data set [1] (40° C./75% RH, Initial), 0.01%. Moreover, the “Assay (on hydrous basis)” value was determined as 98.4% in data set [1] (2-8° C., 3 Month); 98.3% in data set [1] (2-8° C., 6 Month); 98.2% in data set [1] (2-8° C., 12 Month); 99.0% in data set [1] (2-8° C., Initial); 98.3% in data set [1] (25° C./60% RH, 3 Month); 98.2% in data set [1] (25° C./60% RH, 6 Month). Moreover, the “Assay (on hydrous basis)” value in data set [1] (25° C./60% RH, 12 Month) is given as 98.1%; in data set [1] (25° C./60% RH, Initial), 99.0%; in data set [1] (40° C./75% RH, 3 Month), 98.2%; in data set [1] (40° C./75% RH, 12 Month) it was 98.1%; in data set [1] (40° C./75% RH, Initial), 99.0%. The “Chromatographic Purity” value turned out to be 98.1% in data set [1] (2-8° C., 3 Month); 98.3% in data set [1] (2-8° C., 6 Month); 98.4% in data set [1] (2-8° C., 12 Month); 98.2% in data set [1] (2-8° C., Initial); 98.1% in data set [1] (25° C./60% RH, 3 Month); 98.4% in data set [1] (25° C./60% RH, 6 Month). Moreover, the “Chromatographic Purity” value in data set [1] (25° C./60% RH, 12 Month) came to 98.4%; in data set [1] (25° C./60% RH, Initial), 98.2%; in data set [1] (40° C./75% RH, 3 Month), 98.4%; in data set [1] (40° C./75% RH, 12 Month), 98.3%; in data set [1] (40° C./75% RH, Initial), 98.2%. Further, the Water stood at 1.56% in data set [1] (2-8° C., 3 Month); 1.47% in data set [1] (2-8° C., 6 Month); 1.51% in data set [1] (2-8° C., 12 Month); 0.92% in data set [1] (2-8° C., Initial); 1.59% in data set [1] (25° C./60% RH, 3 Month); 1.75% in data set [1] (25° C./60% RH, 6 Month). Also, the Water in data set [1] (25° C./60% RH, 12 Month) is 1.78%; in data set [1] (25° C./60% RH, Initial) it was 0.92%; in data set [1] (40° C./75% RH, 3 Month), 1.65%; in data set [1] (40° C./75% RH, 12 Month) it was 1.82%; in data set [1] (40° C./75% RH, Initial) it was 0.92%.
Regarding `CC[C@H]1OC(=O)[C@@](C)(F)C(=O)[C@H](C)[C@@H](O[C@@H]2O[C@H](C)C[C@H](N(C)C)[C@H]2O)[C@](C)(OC)C[C@@H](C)C(=O)[C@H](C)[C@H]2N(CCCCn3cc(-c4cccc(N)c4)nn3)C(=O)O[C@]12C` [Form I Batch A], the “Mean intrinsic dissolution rate” value in data set [2] (0.1N Hydrochloric Acid) is 9.4 mg/min/cm^2; in data set [2] (Acetate buffer, pH 4.5) it was 2.1 mg/min/cm^2; in data set [2] (Phosphate buffer, pH 6.8), 0.004 mg/min/cm^2; in data set [2] (Phosphate buffer, pH 7.6) it was 0.02 mg/min/cm^2; in data set [2] (Water), 2.0 mg/min/cm^2.
The matching figures for `CC[C@H]1OC(=O)[C@@](C)(F)C(=O)[C@H](C)[C@@H](O[C@@H]2O[C@H](C)C[C@H](N(C)C)[C@H]2O)[C@](C)(OC)C[C@@H](C)C(=O)[C@H](C)[C@H]2N(CCCCn3cc(-c4cccc(N)c4)nn3)C(=O)O[C@]12C` [Form I Batch B]: 10.6 mg/min/cm^2, 2.8 mg/min/cm^2, 0.03 mg/min/cm^2, 0.001 mg/min/cm^2 and 0.7 mg/min/cm^2.
With `CC[C@H]1OC(=O)[C@@](C)(F)C(=O)[C@H](C)[C@@H](O[C@@H]2O[C@H](C)C[C@H](N(C)C)[C@H]2O)[C@@](C)(OC)C[C@@H](C)C(=O)[C@H](C)[C@H]2N(CCCCn3cc(-c4cccc(N)c4)nn3)C(=O)O[C@]12C` [Form I Batch C], the “Mean intrinsic dissolution rate” value in data set [2] (0.1N Hydrochloric Acid) is given as 7.9 mg/min/cm^2; in data set [2] (Acetate buffer, pH 4.5) it was 2.7 mg/min/cm^2; in data set [2] (Phosphate buffer, pH 6.8) it was 0.02 mg/min/cm^2; in data set [2] (Water) it was 1.6 mg/min/cm^2.

These data come from patent US8759500B2, “Crystalline forms of a macrolide, and uses therefor” (Cempra Pharmaceuticals, Inc., priority 2010, dated 2014).
